Columns and labels:
FabD = biological target: T1, FabD (Escherichia coli, UniProt P0AAI9); assay: carrier protein acylation under triketide pyrone production conditions; format: biochemical; details: acceptor: PKS carrier protein domains
T1 sequence (P0AAI9 2-309): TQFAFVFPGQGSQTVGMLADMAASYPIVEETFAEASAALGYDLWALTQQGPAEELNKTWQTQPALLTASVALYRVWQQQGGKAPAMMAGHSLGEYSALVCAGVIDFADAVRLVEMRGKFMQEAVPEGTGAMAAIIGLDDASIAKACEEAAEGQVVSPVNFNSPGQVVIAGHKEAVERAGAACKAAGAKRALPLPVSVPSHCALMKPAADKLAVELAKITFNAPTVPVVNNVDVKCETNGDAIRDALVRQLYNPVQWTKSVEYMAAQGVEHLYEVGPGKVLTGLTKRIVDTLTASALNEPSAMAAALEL

[1] = biological target: T2, Plt module-1 (P1 PKS module-1) (Pseudomonas fluorescens, UniProt O51827); assay: diketide formation, extender unit competition assay; format: biochemical; details: 4,5-dichloropyrrolyl-SNAC as ketide substrate; equimolar Mal-CoA and MeMal-CoA made with MatB; product diketide 6
T2 construct: gene pltB; module-1 only (KS-AT-CP) of the pyoluteorin PKS, wild-type AT; DEBS interdomain linkers used in the bimodular system; recombinant, purified; borders only in supplement
T2 sequence (O51827 1-1030 limits assumed): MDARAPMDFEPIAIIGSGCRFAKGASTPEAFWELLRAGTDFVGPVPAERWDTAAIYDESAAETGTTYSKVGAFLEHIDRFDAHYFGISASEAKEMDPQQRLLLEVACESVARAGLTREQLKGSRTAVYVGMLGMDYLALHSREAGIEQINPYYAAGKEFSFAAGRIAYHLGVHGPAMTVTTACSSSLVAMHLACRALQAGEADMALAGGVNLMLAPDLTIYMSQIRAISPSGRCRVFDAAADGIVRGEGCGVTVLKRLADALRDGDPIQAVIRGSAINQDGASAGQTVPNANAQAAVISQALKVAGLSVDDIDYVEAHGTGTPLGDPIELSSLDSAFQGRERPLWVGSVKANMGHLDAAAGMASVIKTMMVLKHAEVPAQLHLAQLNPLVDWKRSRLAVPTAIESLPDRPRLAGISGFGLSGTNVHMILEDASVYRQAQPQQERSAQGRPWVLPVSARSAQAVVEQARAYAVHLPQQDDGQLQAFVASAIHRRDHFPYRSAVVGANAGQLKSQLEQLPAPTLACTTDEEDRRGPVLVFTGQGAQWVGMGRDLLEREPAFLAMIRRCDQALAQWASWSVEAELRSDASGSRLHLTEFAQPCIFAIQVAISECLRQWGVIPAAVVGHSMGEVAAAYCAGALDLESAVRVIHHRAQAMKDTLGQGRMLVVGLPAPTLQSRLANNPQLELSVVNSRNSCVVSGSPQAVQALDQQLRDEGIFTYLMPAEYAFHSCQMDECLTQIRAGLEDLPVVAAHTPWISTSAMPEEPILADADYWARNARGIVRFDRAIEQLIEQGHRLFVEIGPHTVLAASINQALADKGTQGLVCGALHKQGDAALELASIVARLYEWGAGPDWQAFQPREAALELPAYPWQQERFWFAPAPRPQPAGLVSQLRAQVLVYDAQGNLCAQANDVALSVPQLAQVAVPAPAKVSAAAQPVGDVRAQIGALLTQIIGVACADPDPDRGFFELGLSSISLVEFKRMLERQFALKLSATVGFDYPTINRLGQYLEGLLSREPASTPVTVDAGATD

| SMILES | carrier protein acylation under triketide pyrone production conditions (FabD) | diketide formation, extender unit competition assay [1] |
| --- | --- | --- |
| CCC(C(=O)O)C(=O)SCCNC(=O)CCNC(=O)[C@H](O)C(C)(C)COP(=O)(O)OP(=O)(O)OC[C@H]1O[C@@H](n2cnc3c(N)ncnc32)[C@H](O)[C@@H]1OP(=O)(O)O (stereo partly drawn) [EtMal-CoA] | FabD was also proficient in incorporating EtMal and PgMal extender units |  |
| CC(C(=O)O)C(=O)SCCNC(=O)CCNC(=O)[C@H](O)C(C)(C)COP(=O)(O)OP(=O)(O)OC[C@H]1O[C@@H](n2cnc3c(N)ncnc32)[C@H](O)[C@@H]1OP(=O)(O)O (stereo partly drawn) [MeMal-CoA] |  | the Plt module-1 KS could efficiently use the MeMal extender unit for diketide production |
| C#CCC(C(=O)O)C(=O)SCCNC(=O)CCNC(=O)[C@H](O)C(C)(C)COP(=O)(O)OP(=O)(O)OC[C@H]1O[C@@H](n2cnc3c(N)ncnc32)[C@H](O)[C@@H]1OP(=O)(O)O (stereo partly drawn) [PgMal-CoA] | FabD was also proficient in incorporating EtMal and PgMal extender units |  |
